Our source for the activity change, negative = cytotoxicity and AC50 values is PubChem BioAssay AID743348 (Broad Institute, 2014).

Active and inactive are the calls of the source.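 How the source made its calls: active means AC50 for ATP loss at or below twice the top valid dose tested, with the signal falling; inconclusive means flat fit showing moderate loss, or a poor-quality fit; inactive means the rest, including rises in signal.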

System in one assay: not listed separately
The assay can be described thus: cell viability loss in HepG2 cells – ATP luminescence, dry powder, set 10, cytotoxicity control, dose response (AID 743348). The settings on record: HepG2 viability, CellTiter-Glo ATP luminescence, 72 h; at 26 µM (top of the series).
For `CS(=O)(=O)c1ccc(N2CCN(C(=O)c3ccc4c(c3)OCO4)CC2)cc1`, the activity change, negative = cytotoxicity was -7.24% (inactive).
For the molecule `CC(=O)c1ccc(N2CCN(C(=O)c3cc(Cl)c4c(c3)OCO4)CC2)cc1`, the activity change, negative = cytotoxicity was 6.73% (inactive).
Take `COc1cc(C(=O)N2CCN(c3ccc(C(C)=O)cc3)CC2)cc2c1OCO2`: the activity change, negative = cytotoxicity was 12% (inactive).
With `CC(=O)c1ccc(N2CCN(C(=O)c3cc4c(cn3)OCO4)CC2)cc1`, the activity change, negative = cytotoxicity is -2.87% (inactive).
Turning to `O=C(c1ccc2c(c1)OCO2)N1CCN(c2ccc(S(=O)(=O)C(F)F)cc2)CC1`, the activity change, negative = cytotoxicity was 27.7% (inactive).
On to `CC(=O)c1ccc(N2CCN(C(=O)c3ccc4c(c3)OCO4)CC2)cc1`, for which the activity change, negative = cytotoxicity is -3.33% (inactive).
Regarding `CC(=O)c1ccc(N2CCN(C(=O)Nc3ccc4c(c3)OCO4)CC2)cc1`, the activity change, negative = cytotoxicity is -12% (inactive).
Take `N#Cc1ccc(N2CCN(C(=O)c3ccc4c(c3)OCO4)CC2)cc1`: the activity change, negative = cytotoxicity is -5.11% (inactive).
`CC(=O)c1ccc(N2CCN(C(=O)c3ccc(Cl)c(Cl)c3)CC2)cc1`: the activity change, negative = cytotoxicity was 55.4% (inactive).
Same read-out and setting: the same measure for `O=C(c1ccc2c(c1)OCO2)N1CCN(c2ccc(S(=O)(=O)C(F)(F)F)cc2)CC1`: 24.8% (inactive).
In the case of `CC(=O)c1ccc(N2CCN(C(=O)c3ccc4c(c3)OC(F)(F)O4)CC2)cc1`, the activity change, negative = cytotoxicity is 14.2% (inactive).
In the case of `CC(=O)c1ccc(N2CCN(C(=O)c3ccc4c(c3C)OCO4)CC2)cc1`, the activity change, negative = cytotoxicity is 0.898% (inactive).
In the case of `COc1cc2c(cc1C(=O)N1CCN(c3ccc(C(C)=O)cc3)CC1)OCO2`, the activity change, negative = cytotoxicity is 7.72% (inactive).
Take `CC(=O)c1ccc(N2CCN(C(=O)c3cc4c(cc3Cl)OCO4)CC2)cc1`: the activity change, negative = cytotoxicity was 28.5% (inactive).
On to `O=C(c1ccc2c(c1)OCO2)N1CCN(c2ccc(C(F)(F)F)cc2)CC1`, for which the activity change, negative = cytotoxicity was 7.07% (inactive).
Turning to `CC(=O)c1ccc(N2CCN(C(=O)c3ccc4c(c3)OC(C)(C)O4)CC2)cc1`, the activity change, negative = cytotoxicity is -6.05% (inactive).
On to `CC(=O)c1ccc(N2CCN(C(=O)c3cccc4c3OCO4)CC2)cc1`, for which the activity change, negative = cytotoxicity was 14.1% (inactive).
With `CC(=O)c1ccc(N2CCN(C(=O)c3ccc4snnc4c3)CC2)cc1`, the activity change, negative = cytotoxicity was 19.1% (inactive).
`CC(=O)c1ccc(N2CCN(C(=O)c3ccc4ocnc4c3)CC2)cc1`: the activity change, negative = cytotoxicity was 10.9% (inactive).
On to `CC(=O)c1ccc(N2CC3CC2CN3C(=O)c2ccc3c(c2)OCO3)cc1` (stereo not given), for which the activity change, negative = cytotoxicity is 36.6% (inactive).
For the molecule `CC(=O)c1ccc(N2CCCN(C(=O)c3ccc4c(c3)OCO4)CC2)cc1`, the activity change, negative = cytotoxicity was 11.7% (inactive).
With `COc1ccc(C(=O)N2CCN(c3ccc(C(C)=O)cc3)CC2)cc1OC`, the activity change, negative = cytotoxicity was 9.73% (inactive).
The same measure, in the same setting: the same measure for `O=C(c1ccc2c(c1)OCO2)N1CCN(c2ccc(OC(F)(F)F)cc2)CC1`: -0.808% (inactive).
Regarding `CC(=O)c1ccc(N2CCN(C(=O)c3cc4c(cc3C)OCO4)CC2)cc1`, the activity change, negative = cytotoxicity is 31.1% (inactive).

The test system of the next assay is HepG2 viability, CellTiter-Glo ATP luminescence, 72 h. The assay is described as above.
Conditions: not given
Turning to `CC(=O)c1ccc(N2CCN(S(=O)(=O)c3ccc4c(c3)OCO4)CC2)cc1`, the AC50 is > 52 µM (inactive).
